The record followed here is patent publication US20240368178A1, “IMIDAZOCYCLIC COMPOUND AND APPLICATION THEREOF” (DONGBAO PURPLE STAR (HANGZHOU) BIOPHARMACEUTICAL CO., LTD., priority 2021, published 2024).

For this test, the target named is Human-GLP-1 receptor (Homo sapiens (Human), UniProt P43220). The experiment in a line: In vitro cell activity assay (cAMP, HEK293 GLP-1 cells). The format is cell-based. As to conditions: cAMP detection. As for the experimental part:
Experimental Example 1: In Vitro Cell Activity Assay
The host cell HEK293 for GLP-1 was constructed by WuXi AppTec (Shanghai) Co., Ltd.
cAMP Detection Kit, Cisbio (Cat #62AM4PEJ); 1M HEPES, Invitrogen (Cat #15630-106); 1×HBSS, Invitrogen (Cat #14025); BSA, Sigma (Cat #B2064); IBMX, Sigma (Cat #I5879); Exenatide, Hao Yuan (HY-13443A).
The compounds were prepared into a working solution with a concentration of 30 μM using DMSO. In this assay, each sample was used in an amount of 5 μL.
• 24.5 mL of Hanks Buffer Saline Solution (HBSS), final concentration: lx; • 125 μL of HEPES 1M, final concentration: 5 mM; • 333 μL of 7.5% BSA Solution, final concentration: 0.1%; • 25 μL of IBMX 500 mmol/L, final concentration: 0.5 mmol/L.
Preparation of cAMP assay reagent: 250 μL of cAMP-D2 and 250 μL of anti-cAMP cryptate reagent were added to 4 mL of lysis buffer and mixed gently.
The compound to be tested was diluted 3-fold at 10 points with a starting concentration of 30 μM, and the dilution was completed using Bravo.
Exenatide, used as a control compound, was diluted 3-fold at 10 points with a starting concentration of 500 nM, and the dilution was completed using Bravo. […]
• 1) A GLP-1 cell cryopreservation tube was rapidly thawed in a 37° C. water bath. • 2) The cell suspension was transferred to a 15 mL Transfer centrifuge tube and gently rinsed with 10 mL of HBSS. • 3) The centrifuge tube was centrifuged at 1000 rpm for 1 minute at room temperature. • 4) The supernatant was discarded. • 5) The cells at the bottom were gently dispersed, then rinsed with 10 mL of HBSS, centrifuged to sedimentation, and finally resuspended in the experimental buffer. • 6) The cell density and activity were measured using Vi-cell. • 7) The concentration of GLP-1 cells was diluted to 2.0*105/mL with the experimental buffer. • 8) […] of the diluted cell suspension was transferred to the OptiPlate-384 plate. • 9) The plate was incubated at room temperature for 30 minutes. […]
TopSeal-A was removed and the result was read in EnVision.

Sequence of Human-GLP-1 receptor (P43220 24-463): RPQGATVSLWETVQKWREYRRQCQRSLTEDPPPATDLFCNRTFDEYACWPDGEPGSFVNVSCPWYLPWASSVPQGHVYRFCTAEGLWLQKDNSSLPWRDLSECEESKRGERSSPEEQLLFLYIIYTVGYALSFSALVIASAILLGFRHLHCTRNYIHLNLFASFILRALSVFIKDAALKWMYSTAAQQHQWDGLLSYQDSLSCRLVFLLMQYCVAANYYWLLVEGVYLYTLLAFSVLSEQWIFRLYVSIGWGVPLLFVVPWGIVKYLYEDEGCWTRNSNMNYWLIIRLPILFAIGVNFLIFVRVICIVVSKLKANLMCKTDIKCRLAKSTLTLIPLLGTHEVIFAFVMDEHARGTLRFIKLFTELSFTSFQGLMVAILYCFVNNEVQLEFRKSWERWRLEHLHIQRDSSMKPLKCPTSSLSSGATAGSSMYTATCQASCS

Consider `C[C@]1(c2ccc(Cl)cn2)Oc2cccc(C3CCN(Cc4nc5sc(C(=O)O)c(F)c5n4C[C@@H]4CCO4)CC3)c2O1` (single isomer, unassigned) [Compound 001], for which the EC50 stood at 0.54 nM.
